Literature values as cited in article PMC9516332 (Frontiers in Oncology, 2022).
Read-outs that look alike come from different tables or passages of the source.

Key:
[1] = target: T1, panel of 255 wild-type kinases (Homo sapiens, UniProt O00418); settings: kinase EEF2K, 1 µmol/L single concentration, cited from earlier work
T1 sequence (O00418 1-725): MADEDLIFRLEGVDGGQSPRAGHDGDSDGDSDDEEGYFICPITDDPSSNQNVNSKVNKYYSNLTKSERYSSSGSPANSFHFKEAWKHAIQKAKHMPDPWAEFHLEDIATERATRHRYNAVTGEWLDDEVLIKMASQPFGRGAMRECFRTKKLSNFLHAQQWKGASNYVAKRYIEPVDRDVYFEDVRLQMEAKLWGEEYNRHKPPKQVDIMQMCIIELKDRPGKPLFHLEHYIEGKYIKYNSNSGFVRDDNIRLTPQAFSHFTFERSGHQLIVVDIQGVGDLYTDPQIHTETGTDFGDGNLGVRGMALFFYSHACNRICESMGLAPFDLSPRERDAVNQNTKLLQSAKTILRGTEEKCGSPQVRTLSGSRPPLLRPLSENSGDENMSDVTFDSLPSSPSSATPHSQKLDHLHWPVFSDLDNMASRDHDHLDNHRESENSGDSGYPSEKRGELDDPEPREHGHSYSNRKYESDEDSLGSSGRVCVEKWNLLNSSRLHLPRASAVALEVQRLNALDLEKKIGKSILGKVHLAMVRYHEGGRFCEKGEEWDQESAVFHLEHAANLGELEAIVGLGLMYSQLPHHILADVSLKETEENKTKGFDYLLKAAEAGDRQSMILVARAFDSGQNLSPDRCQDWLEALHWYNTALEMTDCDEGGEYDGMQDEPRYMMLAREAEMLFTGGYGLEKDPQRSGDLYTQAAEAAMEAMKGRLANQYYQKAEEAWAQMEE

[2] = target: T2, panel of 255 wild-type kinases (Homo sapiens, UniProt O14965); settings: cited from earlier work
T2 sequence (O14965 1-403): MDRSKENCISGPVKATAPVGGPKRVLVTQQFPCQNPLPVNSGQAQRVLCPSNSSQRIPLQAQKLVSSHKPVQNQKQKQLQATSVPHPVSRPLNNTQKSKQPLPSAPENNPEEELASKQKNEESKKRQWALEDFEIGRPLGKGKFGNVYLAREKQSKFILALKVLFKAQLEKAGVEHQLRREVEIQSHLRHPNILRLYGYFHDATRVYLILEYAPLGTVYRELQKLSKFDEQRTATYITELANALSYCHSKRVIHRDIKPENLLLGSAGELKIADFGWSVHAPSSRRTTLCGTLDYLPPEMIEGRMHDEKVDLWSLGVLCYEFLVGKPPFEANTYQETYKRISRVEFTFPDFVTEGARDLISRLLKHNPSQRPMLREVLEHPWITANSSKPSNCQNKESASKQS

[3] = target: panel of 255 wild-type kinases (Homo sapiens, UniProt P05771); settings: kinase PKCβ1, 1 µmol/L single concentration, cited from earlier work
[4] = target: panel of 255 wild-type kinases (Homo sapiens, UniProt P12931); settings: kinase SRC, 1 µmol/L single concentration, cited from earlier work
[5] = target: T3, panel of 255 wild-type kinases (Homo sapiens, UniProt P36888); settings: kinase FLT3, 1 µmol/L single concentration, cited from earlier work
T3 sequence (P36888 27-993): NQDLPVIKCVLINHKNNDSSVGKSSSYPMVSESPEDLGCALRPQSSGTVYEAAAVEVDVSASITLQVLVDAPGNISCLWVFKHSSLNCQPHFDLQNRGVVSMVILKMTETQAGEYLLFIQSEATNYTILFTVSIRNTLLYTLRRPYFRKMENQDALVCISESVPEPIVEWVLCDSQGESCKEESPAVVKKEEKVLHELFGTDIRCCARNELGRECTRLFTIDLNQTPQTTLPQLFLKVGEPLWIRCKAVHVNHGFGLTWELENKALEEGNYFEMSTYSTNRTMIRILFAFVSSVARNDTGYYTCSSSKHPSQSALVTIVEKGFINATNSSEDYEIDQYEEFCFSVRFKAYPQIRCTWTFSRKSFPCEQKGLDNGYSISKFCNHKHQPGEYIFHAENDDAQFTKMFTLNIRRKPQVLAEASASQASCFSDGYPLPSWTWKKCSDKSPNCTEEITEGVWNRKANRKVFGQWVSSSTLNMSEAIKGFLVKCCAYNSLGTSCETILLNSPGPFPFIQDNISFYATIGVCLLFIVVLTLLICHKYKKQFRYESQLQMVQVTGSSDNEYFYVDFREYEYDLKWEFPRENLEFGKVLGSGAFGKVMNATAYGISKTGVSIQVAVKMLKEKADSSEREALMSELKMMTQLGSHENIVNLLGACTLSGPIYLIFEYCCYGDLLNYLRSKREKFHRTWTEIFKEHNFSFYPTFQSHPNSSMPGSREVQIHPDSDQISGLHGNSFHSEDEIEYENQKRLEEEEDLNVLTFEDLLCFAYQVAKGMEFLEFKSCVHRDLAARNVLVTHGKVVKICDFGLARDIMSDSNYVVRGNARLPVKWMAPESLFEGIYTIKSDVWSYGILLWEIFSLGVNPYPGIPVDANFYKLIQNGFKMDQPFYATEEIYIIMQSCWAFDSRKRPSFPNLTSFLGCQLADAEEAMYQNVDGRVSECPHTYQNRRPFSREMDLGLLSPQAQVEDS

[6] = target: panel of 255 wild-type kinases (Homo sapiens, UniProt Q04759); settings: kinase PKCθ, 1 µmol/L single concentration, cited from earlier work
[7] = target: panel of 255 wild-type kinases (Homo sapiens, UniProt Q13177); settings: PAK2, 1 µmol/L single concentration, cited from earlier work
[8] = target: panel of 255 wild-type kinases (Homo sapiens, UniProt Q13464); settings: kinase ROCK1, 1 µmol/L single concentration, cited from earlier work
[9] = ref DOI: 10.1371/journal.pone.0092146
[10] = AurA kinase assay, 1 µmol/L single concentration, ref DOI: 10.1371/journal.pone.0092146
[11] = AurA/TPX2 kinase assay, 1 µmol/L single concentration, ref DOI: 10.1371/journal.pone.0092146
[12] = ref DOI: 10.1158/1535-7163.MCT-18-0877
[13] = AurA kinase assay, 1 µmol/L single concentration, ref DOI: 10.1158/1535-7163.MCT-18-0877
[14] = AurA/TPX2 kinase assay, 1 µmol/L single concentration, ref DOI: 10.1158/1535-7163.MCT-18-0877

| Structure (SMILES) | %-inhibition at 1 µmol/L, EEF2K [1, 9] [%] | %-inhibition AurA [2, 10] [%] | %-inhibition AurA/TPX2 [2, 11] [%] | %-inhibition at 1 µmol/L, PKCβ1 [3, 9] [%] | %-inhibition at 1 µmol/L, SRC [4, 9] [%] | %-inhibition at 1 µmol/L, FLT3 [5, 9] [%] | %-inhibition at 1 µmol/L, PKCθ [6, 9] [%] | %-inhibition, PAK2 [7, 9] [%] | %-inhibition at 1 µmol/L, ROCK1 [8, 9] [%] | %-inhibition at 1 µmol/L, EEF2K [1, 12] [%] | %-inhibition AurA [2, 13] [%] | %-inhibition AurA/TPX2 [2, 14] [%] | %-inhibition at 1 µmol/L, PKCβ1 [3, 12] [%] | %-inhibition at 1 µmol/L, SRC [4, 12] [%] | %-inhibition at 1 µmol/L, FLT3 [5, 12] [%] | %-inhibition at 1 µmol/L, PKCθ [6, 12] [%] | %-inhibition, PAK2 [7, 12] [%] | %-inhibition at 1 µmol/L, ROCK1 [8, 12] [%] | %-inhibition AurA [2] [%] | %-inhibition AurA/TPX2 [2] [%] |
| --- | --- | --- | --- | --- | --- | --- | --- | --- | --- | --- | --- | --- | --- | --- | --- | --- | --- | --- | --- | --- |
| CCCS(=O)(=O)Nc1ccc(F)c(C(=O)c2c[nH]c3ncc(-c4ccc(Cl)cc4)cc23)c1F [vemurafenib] | -5 | 23 | -2.59 | -3.81 | 52 | 10 | -3 | 13 | 1.28 | – | – | – | – | – | – | – | – | – | – | – |
| CC(=O)Nc1cccc(-n2c(=O)n(C3CC3)c(=O)c3c(Nc4ccc(I)cc4F)n(C)c(=O)c(C)c32)c1 [trametinib] | -3.43 | -2 | -5.37 | -3.47 | -5.4 | 20 | 0.388 | -9 | 3.21 | – | – | – | – | – | – | – | – | – | – | – |
| CCc1cc2c(cc1N1CCC(N3CCOCC3)CC1)C(C)(C)c1[nH]c3cc(C#N)ccc3c1C2=O [alectinib] | – | – | – | – | – | – | – | – | – | -0.237 | 5 | -3 | -1.89 | 10 | 78 | -2 | -29 | -2 | – | – |
| CC(C)(C)c1nc(-c2cccc(NS(=O)(=O)c3c(F)cccc3F)c2F)c(-c2ccnc(N)n2)s1 [dabrafenib] | – | – | – | – | 68 | 41 | – | – | – | – | – | – | – | – | – | – | – | – | – | – |
| CC#CC(=O)N1CCC[C@H]1c1nc(-c2ccc(C(=O)Nc3ccccn3)cc2)c2c(N)nccn12 [acalabrutinib] | – | – | – | – | – | – | – | – | – | -12 | 2.34 | -4.71 | -11 | 10 | 3.27 | -8 | -5 | -8 | – | – |
| O=C(c1ccc(F)c(F)c1Nc1ccc(I)cc1F)N1CC(O)([C@@H]2CCCCN2)C1 [cobimetinib] | – | – | – | – | – | – | – | – | – | -0.685 | -0.696 | -1.88 | -4.35 | 6.45 | -0.393 | -4.34 | -17 | -2.61 | – | – |
| Cc1cc(Nc2ncc(Cl)c(Nc3ccccc3S(=O)(=O)C(C)C)n2)c(OC(C)C)cc1C1CCNCC1 [ceritinib] | – | – | – | – | – | – | – | – | – | 11 | 12 | 2.84 | 6.66 | 9 | – | -0.708 | -4.22 | 31 | – | – |
| CO[C@@H]1[C@H](N(C)C(=O)c2ccccc2)C[C@H]2O[C@]1(C)n1c3ccccc3c3c4c(c5c6ccccc6n2c5c31)C(=O)NC4 [midostaurin] | – | – | – | – | – | – | – | – | – | -9 | – | – | 89 | 79 | – | – | – | 13 | 100 | 91 |
| C=CC(=O)N1CCC[C@@H](n2nc(-c3ccc(Oc4ccccc4)cc3)c3c(N)ncnc32)C1 [ibrutinib] | – | – | – | – | – | – | – | – | – | 1.15 | 30 | -2.33 | -3 | – | 63 | -1.13 | -6 | -5.42 | – | – |
| C[C@@H](Oc1cc(-c2cnn(C3CCNCC3)c2)cnc1N)c1c(Cl)ccc(F)c1Cl [crizotinib] | -4.6 | – | – | -3 | – | – | -3 | 5 | 3.39 | – | – | – | – | – | – | – | – | – | – | – |
